Key:
Type in all cases: in vivo
Scirpus juncoides = experiment: Test Example 1: herbicidal activity, application before weed generation in submerged conditions; conditions: Seventeenth Table
How it was run: (§1)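 Submerged pot test: alluvial soil, 4 cm water, seeds sown mixed, 2.5-leaf rice transplanted; emulsion in water applied to surface day of sowing, dose g/ha; greenhouse 25–30° C.; 3 wk; 0–5 rating.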

Monochoria vaginalis = experiment: as above; conditions: Seventeenth Table
How it was run: as §1

[1] = test system: Echinochloa oryzacola Vasing.; experiment: as above; conditions: Seventeenth Table
How it was run: as §1

[2] = test system: transplanted Oryza sativa; experiment: Test Example 1: effect on crop, application before weed generation in submerged conditions; conditions: Seventeenth Table
How it was run: as §1

Amaranthus retroflexus = experiment: Test Example 4: herbicidal effect by application to foliage (diluvial soil, plastic box); conditions: for N (Amaranthus retroflexus) herbicidal effect: application to foliage, application herbicide amount 320 g/ha
How it was run: (§2)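 Read-out is a 0–5 visual grade of herbicidal ratio (5: ≥90%, almost withered; 0: ≤5%) taken three weeks after treatment. Compound was applied as a diluted emulsion to stem and leaf parts of 14-day greenhouse-grown plants (25° C. to 30° C.) at rates expressed as g/ha.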

Stellaria media = experiment: as above; conditions: for P (Stellaria media) herbicidal effect: application to foliage, application herbicide amount 320 g/ha
How it was run: as §2

[3] = test system: directly sowed Oryza sativa; experiment: Test Example 3: effect on crop by application to foliage (Wagner pot, water depth 0.1-0.5 cm); conditions: Nineteenth Table; for b (directly sowed Oryza sativa) effect on crop grade: application herbicide amount 320 g/ha
How it was run: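 A small sprayer delivered the diluted emulsion uniformly to foliage at the chosen rate in g/ha, 14 days after sowing in Wagner pots held at 25–30 °C. Outcome: 0–5 herbicidal-ratio score read three weeks post-treatment.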

[4] = Application herbicide amount 320 g/ha
[5] = Application herbicide amount 192 g/ha

SMILES	B: Scirpus juncoides (herbicidal effect grade) (Scirpus juncoides; [4])	C: Monochoria vaginalis (herbicidal effect grade) (Monochoria vaginalis; [4])	A: Echinochloa oryzicola Vasing. (herbicidal effect grade) [1, 4]	a: transplanted Oryza sativa (effect on crop grade) [2, 4]	N (Amaranthus retroflexus) herbicidal effect (Amaranthus retroflexus)	P (Stellaria media) herbicidal effect (Stellaria media)	b (directly sowed Oryza sativa) effect on crop grade [3]	B: Scirpus juncoides (herbicidal effect grade) (Scirpus juncoides; [5])	C: Monochoria vaginalis (herbicidal effect grade) (Monochoria vaginalis; [5])	A: Echinochloa oryzicola Vasing. (herbicidal effect grade) [1, 5]	a: transplanted Oryza sativa (effect on crop grade) [2, 5]	N (Amaranthus retroflexus) herbicidal effect grade (Amaranthus retroflexus; foliage application, 192 g/ha)	P (Stellaria media) herbicidal effect grade (Stellaria media; foliage application, 192 g/ha)	b (effect on crop grade) ([3]; application to foliage, application herbicide amount 192 g/ha)
CC(C)c1nnc2c(C(=O)Nc3nnco3)ccc(C(F)(F)F)n12 [1-050]	5 (Herbicidal ratio of 90% or more (almost completely withered))	4 (Herbicidal ratio of 70% or more and less than 90%)	5 (Herbicidal ratio of 90% or more (almost completely withered))	2 (Herbicidal ratio of 20% or more and less than 40%)	5 (Herbicidal ratio of 90% or more (almost completely withered))	5 (Herbicidal ratio of 90% or more (almost completely withered))	1 (Herbicidal ratio of 5% or more and less than 20%)							
Cc1cc(C(=O)Nc2nnnn2C)c2nnc(C(C)C)n2c1C(F)(F)F [2-050]								2 (Herbicidal ratio of 20% or more and less than 40%)	3 (Herbicidal ratio of 40% or more and less than 70%)	4 (Herbicidal ratio of 70% or more and less than 90%)	2 (Herbicidal ratio of 20% or more and less than 40%)	2 (Herbicidal ratio of 20% or more and less than 40%)	3 (Herbicidal ratio of 40% or more and less than 70%)	0 (Herbicidal ratio of 5% or less (almost no effect))
CCS(=O)(=O)c1nnc2c(C(=O)Nc3nnc(C)o3)ccc(C(F)(F)F)n12 [1-041]	3 (Herbicidal ratio of 40% or more and less than 70%)	3 (Herbicidal ratio of 40% or more and less than 70%)	3 (Herbicidal ratio of 40% or more and less than 70%)	0 (Herbicidal ratio of 5% or less (almost no effect))	5 (Herbicidal ratio of 90% or more (almost completely withered))	5 (Herbicidal ratio of 90% or more (almost completely withered))	2 (Herbicidal ratio of 20% or more and less than 40%)							
CCC(C)c1nnc2c(C(=O)Nc3nnc(C)o3)ccc(C(F)(F)F)n12 (centres unmarked) [1-021]	4 (Herbicidal ratio of 70% or more and less than 90%)	4 (Herbicidal ratio of 70% or more and less than 90%)	5 (Herbicidal ratio of 90% or more (almost completely withered))	2 (Herbicidal ratio of 20% or more and less than 40%)	5 (Herbicidal ratio of 90% or more (almost completely withered))	5 (Herbicidal ratio of 90% or more (almost completely withered))	3 (Herbicidal ratio of 40% or more and less than 70%)							
COCCc1nnc(NC(=O)c2ccc(C(F)(F)F)n3c(C(C)C)nnc23)o1 [1-052]	3 (Herbicidal ratio of 40% or more and less than 70%)	2 (Herbicidal ratio of 20% or more and less than 40%)	3 (Herbicidal ratio of 40% or more and less than 70%)	0 (Herbicidal ratio of 5% or less (almost no effect))	4 (Herbicidal ratio of 70% or more and less than 90%)	2 (Herbicidal ratio of 20% or more and less than 40%)	0 (Herbicidal ratio of 5% or less (almost no effect))							

Reference: patent publication US9708314B2, “Heterocyclic amide compound” (NISSAN CHEMICAL INDUSTRIES, LTD., priority 2013, dated 2017)
